Reference: patent US6262073A, “Pharmaceutical methods of use of 5-substituted and 5,5 disubstituted-3,4-dihydroxy-2(5H)-furanones” (Oxis International Inc., priority 2000, dated 2001)

Columns and labels:
NF-κB = NF-κB nuclear membrane translocation, EMSA, LPS-treated NR8383 cells; assay type: cell-based; conditions: Rattus norvegicus, 6 h, read-out: % Inhibition (NF-κB nuclear translocation)
Description: Experiments measuring test agents effect on NF-κB nuclear membrane translocation were performed with NR8383 cells, which are transformed rat alveolar macrophages. […] In addition, some compounds were tested at doses of 10 and 30 μM. Untreated control cells and cells treated with LPS alone were tested in each experiment. Cells were harvested 6 hours after treatment. Nuclear proteins were extracted, frozen and quantified using the Bradford assay. Electrophoretic mobility shift assays (EMSA) were subsequently analyzed using a radiolabeled NF-κB probe. Nuclear proteins were reacted with the radiolabeled probe, run on a 5% polyacrylamide gel, and subjected to autoradiography. Specificity of protein binding for the NF-κB binding site was assayed by cold and nonspecific competition using the LPS treated sample in each experiment. All EMSA were duplicated at least once to verify results. Laser densitometry of NF-κB bands was done on autoradiographs to quantify NF-κB binding activity.

[1] = test system: Lipid peroxidation (rat liver microsomes); assay: Lipid peroxidation screen (LPO), CCl4-induced, liver microsomes; assay type: biochemical; conditions: 300 μM
Description: (§1) The compounds of the invention were screened for their anti-inflammatory activity using a series of in vitro tests the details of which are given below. The activity of various compounds against 5-lipoxygenase, cycloxygenase-1, cycloxygenase-2 and lipid peroxidase was evaluated. Results of the screening procedures are included in TABLE I, and the activity against 5-lipoxygenase at a test concentration of 1 μM in Table II.
Lipid peroxidation is a consequence of various stimuli, including reactive free radicals. Polyunsaturated fatty acids associated with plasma membranes are degraded due to enzymatic induction by reactive agents such as CCl4, leading to cellular damage. Briefly, microsomes are prepared from rat livers and the protein concentration is determined according to the method of D. Mansuy et al., Biochem. Biophys. Res. Comm. 135:1015-1021(1986). A reaction mixture consisting of 2 mg of the microsomal preparation, an NADPH generating system, 20 mM CCl4 and test compound are incubated for 12 minutes at 37° C. The reaction is terminated by the addition of a mixture of thiobarbituric acid and trichloroacetic acid. The absorbance is read at 535 nm and is proportional to the concentration of malondialdehyde. Compounds are screened at 300 μM.

[2] = target: T1, Cyclooxygenase-1 (cyclooxygenase from ram seminal vesicles) (Ovis aries, UniProt P05979); assay: Cyclooxygenase-1 screen (COX-1); assay type: biochemical; conditions: 300 μM
T1 construct: cyclooxygenase from ram seminal vesicles; from tissue; host or cells: ram seminal vesicles
T1 sequence (P05979 25-600): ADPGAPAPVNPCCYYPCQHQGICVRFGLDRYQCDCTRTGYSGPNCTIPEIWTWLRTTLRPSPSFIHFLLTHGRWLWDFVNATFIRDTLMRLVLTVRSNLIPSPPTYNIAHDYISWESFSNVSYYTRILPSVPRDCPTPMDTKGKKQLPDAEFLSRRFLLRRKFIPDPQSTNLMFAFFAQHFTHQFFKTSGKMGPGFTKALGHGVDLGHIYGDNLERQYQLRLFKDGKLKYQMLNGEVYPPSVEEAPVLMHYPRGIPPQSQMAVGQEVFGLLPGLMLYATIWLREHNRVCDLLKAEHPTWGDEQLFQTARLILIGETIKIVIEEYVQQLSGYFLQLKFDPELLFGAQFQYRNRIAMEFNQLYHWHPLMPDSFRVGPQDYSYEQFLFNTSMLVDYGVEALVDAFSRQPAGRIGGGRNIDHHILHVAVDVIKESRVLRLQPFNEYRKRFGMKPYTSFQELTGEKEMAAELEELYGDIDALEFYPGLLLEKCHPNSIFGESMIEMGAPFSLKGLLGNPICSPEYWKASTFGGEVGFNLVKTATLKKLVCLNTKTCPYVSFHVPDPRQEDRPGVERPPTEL
Description: as §1
Cyclooxygenase-1 is involved in the formation of prostaglandins and thromboxane via the oxidative metabolism of arachidonic acid. Briefly, cyclooxygenase from ram seminal vesicles is incubated with arachidonic acid (100 μm) for 2 minutes at 37° C. in the presence or absence of test compounds according to the methods of A. T. Evans et al., Biochem. Pharm. 36:2035-2037(1987) and R. Boopathy et al., Biochem J. 239:371-377 (1968). The assay is terminated by the addition of trichioroacetic acid and cyclooxygenase activity is determined by reading the absorbance at 530 nm. […]

[3] = target: T2, 5-Lipoxygenase (crude enzyme preparation from rat basophilic leukemia cells, RBL-1) (Rattus norvegicus, UniProt P12527); assay: 5-Lipoxygenase screen (5-LO), 5-HETE by RIA; assay type: biochemical; conditions: for inhibition at 30 µM: read-out: 5-LO percent inhibition; for inhibition at 1 µM: read-out: Percent inhibition of 5-LO, test conc. 1 μM (Table II)
T2 construct: crude enzyme preparation from rat basophilic leukemia cells (RBL-1); endogenous in cells; host or cells: rat basophilic leukemia cells (RBL-1)
T2 sequence (P12527 1-673): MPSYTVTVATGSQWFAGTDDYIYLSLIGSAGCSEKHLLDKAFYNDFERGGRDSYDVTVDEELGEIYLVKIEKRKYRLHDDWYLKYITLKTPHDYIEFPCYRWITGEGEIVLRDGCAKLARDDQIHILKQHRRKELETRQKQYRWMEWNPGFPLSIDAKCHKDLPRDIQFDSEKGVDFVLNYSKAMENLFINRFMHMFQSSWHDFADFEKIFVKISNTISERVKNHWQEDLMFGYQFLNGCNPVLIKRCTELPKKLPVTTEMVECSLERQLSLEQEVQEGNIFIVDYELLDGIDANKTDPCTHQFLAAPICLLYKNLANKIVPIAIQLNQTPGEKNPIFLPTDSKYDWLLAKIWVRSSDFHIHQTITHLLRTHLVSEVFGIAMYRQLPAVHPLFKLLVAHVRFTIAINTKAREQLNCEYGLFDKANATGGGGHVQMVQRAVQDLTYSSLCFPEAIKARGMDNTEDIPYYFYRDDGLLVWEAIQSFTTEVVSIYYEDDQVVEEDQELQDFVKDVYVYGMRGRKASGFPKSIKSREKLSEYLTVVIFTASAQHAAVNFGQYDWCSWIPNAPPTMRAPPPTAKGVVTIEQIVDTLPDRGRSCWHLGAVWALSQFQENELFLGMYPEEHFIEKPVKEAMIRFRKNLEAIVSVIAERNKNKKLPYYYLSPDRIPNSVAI
Description: as §1
5-Lipoxygenase catalyzes the oxidative metabolism of arachidonic acid to […] (5-HETE), the initial reaction leading to the formation of the leukotrienes. Briefly, the testing procedure utilizes a crude enzyme preparation from rat basophilic leukemia cells (RBL-1) according to the methods of T. Shimuzu et al. Pro. […] Test compounds are pre-incubated with the enzyme preparation for 5 minutes at room temperature and the reaction is initiated by the addition of arachidonic acid. Following an 8 minute incubation at room temperature, the reaction is terminated by the addition of citric acid and concentrations of 5-HETE are determined by RIA. Compounds are screened at 30 μM.

[4] = test system: Nuclear Factor-kappa B (NF-κB); assay: NF-κB lacZ (κB-Z) reporter assay in transfected Jurkat cells stimulated with A23187 and PMA; assay type: cell-based, human; conditions: Homo sapiens; 10 μM; κB-Z Jurkat cells, A23187 and PMA (Table III); read-out: NF-κB percent inhibition
Description: The human T lymphoid cell line Jurkat was transfected with a response element lacZ reporter in which transcription of the β-galactosidase gene is directed by the binding site for the NF-κB transcription factor. […] At the end of the incubation, the cells are spun down and resuspended in the buffer and FDG (fluorescein di-β-D-galactopyranoside) solution. The covered plates are further incubated in the dark for 16 hours at 25° C. […] Compounds were screened at 10 μM.

[5] = target: T3, Cyclooxygenase-2 (prostaglandin H synthetase-2) from sheep placenta (Ovis aries, UniProt P79208); assay: Cyclooxygenase-2 screen (COX-2); assay type: biochemical; conditions: read-out: COX-2 percent inhibition
T3 construct: cyclooxygenase-2 from sheep placenta; from tissue; host or cells: sheep placenta
T3 sequence (P79208 17-603): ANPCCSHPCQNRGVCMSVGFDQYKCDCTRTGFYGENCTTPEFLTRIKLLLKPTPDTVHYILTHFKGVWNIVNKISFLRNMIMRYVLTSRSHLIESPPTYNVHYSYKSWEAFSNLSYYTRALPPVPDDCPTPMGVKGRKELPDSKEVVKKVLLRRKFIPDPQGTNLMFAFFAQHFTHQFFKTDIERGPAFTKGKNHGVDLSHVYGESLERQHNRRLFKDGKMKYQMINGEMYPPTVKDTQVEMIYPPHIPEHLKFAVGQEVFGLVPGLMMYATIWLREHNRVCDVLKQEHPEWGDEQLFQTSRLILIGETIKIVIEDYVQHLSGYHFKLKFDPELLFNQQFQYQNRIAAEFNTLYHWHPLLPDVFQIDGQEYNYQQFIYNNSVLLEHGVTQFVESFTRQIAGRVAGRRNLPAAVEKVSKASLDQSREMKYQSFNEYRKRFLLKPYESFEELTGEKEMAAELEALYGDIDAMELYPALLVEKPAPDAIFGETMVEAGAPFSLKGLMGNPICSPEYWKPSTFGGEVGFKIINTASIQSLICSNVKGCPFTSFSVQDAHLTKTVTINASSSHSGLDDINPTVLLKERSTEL
Description: as §1
Cyclooxygenase-2, also known as prostaglandin H synthetase-2, catalyzes the rate- limiting step in the synthesis of inflammatory prostaglandins. In this reaction cyclooxygenase-2 catalyzes the oxygenation of unesterified precursors to form cyclic endoperoxide derivatives, including prostaglandin H. Briefly, cyclooxygenase-2 from sheep placenta, 14 μg/assay tube, is incubated with arachidonic acid (500 μM) for 1.5 minutes at 27° C. in the absence or presence of test compounds according to the methods of A. T. Evans, et al., Biochem Pharm. […] Res. Comm. […] Compounds are screened at 300 μM.

SMILES | inhibition at 1 µM (NF-κB) | LPO percent inhibition [1] | COX-1 percent inhibition [2] | inhibition at 30 µM [3] | inhibition at 1 µM [3] | inhibition at 10 µM [4] | inhibition at 300 µM [5]
C[C@@H]1C[C@H]2[C@@H]3CCC4=CC(=O)C=C[C@]4(C)[C@@]3(F)[C@@H](O)C[C@]2(C)[C@@]1(O)C(=O)CO [Dexamethasone] | 60% | – | – | – | – | – | –
O=C1OC(c2ccccc2)(c2ccc(-c3ccccc3)cc2)C(O)=C1O (stereo not shown) [Example 7, 5-[(1,1'-Biphenyl)-4-yl]-3,4-dihydroxy-5-phenyl-2(5H)-furanone] | – | 73% | 52% | 102% | 61% | 21% | 34%
O=C1OC(c2ccccc2)(c2ccccc2)C(O)=C1O [Example 8, 3,4-Dihydroxy-5,5-diphenyl-2(5H)-furanone] | – | 70% | 15% | 94% | 15% | 33% | 17%
CCCC1(c2ccc(CC(C)C)cc2)OC(=O)C(O)=C1O (stereo not shown) [Example 9, 3,4-Dihydroxy-5-(4-isobutylphenyl)-5-(1-propyl)-2(5H)-furanone] | – | 79% | 25% | 82% | 40% | 26% | 19%
CC(C)Cc1ccc(C2(c3ccccc3)OC(=O)C(O)=C2O)cc1 (stereo not shown) [Example 10, 3,4-Dihydroxy-5-(4-isobutylphenyl)-5-phenyl-2(5H)-furanone] | – | 89% | 43% | 106% | 64% | 16% | 34%
C[C@@]1(c2ccc(-c3ccccc3)cc2)OC(=O)C(O)=C1O [Example 11, (S)-(+)-5-[(1,1'-Biphenyl)-4-yl]-3,4-dihydroxy-5-methyl-2(5H)-furanone] | – | 71% | 34% | 101% | 59% | 72% | 10%
C[C@]1(c2ccc(-c3ccccc3)cc2)OC(=O)C(O)=C1O [Example 12, (R)-(-)-5-[(1,1'-Biphenyl)-4-yl]-3,4-dihydroxy-5-methyl-2(5H)-furanone] | – | 62% | 10% | 101% | 60% | 56% | 12%
CC(C)Cc1ccc([C@@]2(C)OC(=O)C(O)=C2O)cc1 [Example 13, (R)-(-)-3,4-Dihydroxy-5-methyl-5-[4-(2-methylpropyl)phenyl]-2(5H)-furanone] | – | 76% | 12% | 102% | 59% | 49% | 14%
CC(C)Cc1ccc([C@]2(C)OC(=O)C(O)=C2O)cc1 [Example 14, (S)-(+)-3,4-Dihydroxy-5-methyl-5-[4-(2-methylpropyl)phenyl]-2(5H)-furanone] | – | 66% | 12% | 96% | 50% | 60% | 18%
O=C1OC(CCSc2nc(-c3ccccc3)c(-c3ccccc3)o2)C(O)=C1O (stereo not shown) [Example 24, 3,4-Dihydroxy-5-[2-(4,5-diphenyl-1,3-oxazole-2-thio)ethyl]-2(5H)-furanone] | – | 78% | 76% | 113% | 71% | 44% | 68%
